Assay results taken from US7851474B2, “Dipiperazinyl ketones and related analogues” (Neurogen Corporation, priority 2005, dated 2010).

target: T1, chimeric human H3 receptor (Homo sapiens, UniProt Q9Y5N1, E19D); experiment: Chimeric human H3 receptor GTP binding assay (agonist-stimulated GTP-gamma35S binding, Example 7); format: biochemical; conditions: assay of Example 7; symbol * in column headed Ki of Table II; read-out: Ki
T1 construct: made in house; host or cells: Sf9 insect cells (baculovirus infection); P2 membrane preparation
Method in brief: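 IC50 values come from non-linear regression of dose-response curves of filter-bound GTP-gamma^35S, counted by scintillation. Membranes were from infected Sf9 cells carrying receptor plus G-protein subunits, 35 μg/tube, with 10 μM GDP present.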

T1 sequence (Q9Y5N1 with tags, fused parts or gaps E19D): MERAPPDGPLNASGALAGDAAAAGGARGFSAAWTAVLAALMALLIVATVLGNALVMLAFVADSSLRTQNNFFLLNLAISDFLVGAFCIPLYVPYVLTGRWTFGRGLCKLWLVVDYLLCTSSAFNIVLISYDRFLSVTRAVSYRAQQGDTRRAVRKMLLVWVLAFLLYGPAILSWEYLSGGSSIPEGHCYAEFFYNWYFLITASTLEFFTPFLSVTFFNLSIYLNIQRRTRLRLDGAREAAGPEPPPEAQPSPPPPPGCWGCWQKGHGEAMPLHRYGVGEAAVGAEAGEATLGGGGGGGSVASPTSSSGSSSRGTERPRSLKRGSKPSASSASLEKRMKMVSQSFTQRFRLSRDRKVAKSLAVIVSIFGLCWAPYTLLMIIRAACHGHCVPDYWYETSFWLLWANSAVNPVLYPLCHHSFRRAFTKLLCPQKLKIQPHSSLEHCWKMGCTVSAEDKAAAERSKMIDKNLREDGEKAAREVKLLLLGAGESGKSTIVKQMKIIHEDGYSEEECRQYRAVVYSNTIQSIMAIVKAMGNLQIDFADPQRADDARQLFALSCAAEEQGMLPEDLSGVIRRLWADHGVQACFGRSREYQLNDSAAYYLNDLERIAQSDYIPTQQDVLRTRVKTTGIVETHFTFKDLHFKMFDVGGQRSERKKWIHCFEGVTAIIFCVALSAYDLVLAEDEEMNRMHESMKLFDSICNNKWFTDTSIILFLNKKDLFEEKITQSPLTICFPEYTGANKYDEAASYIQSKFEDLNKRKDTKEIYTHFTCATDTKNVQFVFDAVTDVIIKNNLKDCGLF

SMILES | Ki
CC(=O)c1cnc(N2CCN(CC(=O)N3CCN(C4CCC4)CC3)CC2)cn1 [Compound 362, 1-(5-{4-[2-(4-cyclobutylpiperazin-1-yl)-2-oxoethyl]piperazin-1-yl}pyrazin-2-yl)ethanone] | < 1000 nM
COc1ccc(Cl)cc1N1CCN(CC(=O)N2CCN(C3CCC3)CC2)CC1 [Compound 366, 1-(5-chloro-2-methoxyphenyl)-4-[2-(4-cyclobutylpiperazin-1-yl)-2-oxoethyl]piperazine] | < 1000 nM
CC(=O)c1ccc(N2CCN(CC(=O)N3CCN(C4CCC4)CC3)CC2)nn1 [Compound 372, 1-(6-{4-[2-(4-cyclobutylpiperazin-1-yl)-2-oxoethyl]piperazin-1-yl}pyridazin-3-yl)ethanone] | < 1000 nM
CC(=O)c1ccc(N2CCN(CC(=O)N3CCN(C4CCCC4)CC3)CC2)nc1 [Compound 373, 1-(6-{4-[2-(4-cyclopentylpiperazin-1-yl)-2-oxoethyl]piperazin-1-yl}pyridin-3-yl)ethanone] | < 1000 nM
O=C(Cc1cc(Cl)ccc1Br)N1CCN(CC(=O)N2CCN(C3CCC3)CC2)CC1 [Compound 379, 1-[(2-bromo-5-chlorophenyl)acetyl]-4-[2-(4-cyclobutylpiperazin-1-yl)-2-oxoethyl]piperazine] | < 1000 nM
O=C(Cc1c(F)cccc1Cl)N1CCN(CC(=O)N2CCN(C3CCC3)CC2)CC1 [Compound 382, 1-[(2-chloro-6-fluorophenyl)acetyl]-4-[2-(4-cyclobutylpiperazin-1-yl)-2-oxoethyl]piperazine] | < 1000 nM
O=C(CN1CCN(c2ccc(C(=O)N3CCCCCC3)cn2)CC1)N1CCN(C2CCC2)CC1 [Compound 415, 1-[(6-{4-[2-(4-cyclobutylpiperazin-1-yl)-2-oxoethyl]piperazin-1-yl}pyridin-3-yl)carbonyl]azepane] | < 1000 nM
CC(Oc1ccccc1Cl)C(=O)N1CCN(CC(=O)N2CCN(C3CCC3)CC2)CC1 (centres unmarked) [Compound 417, 1-[2-(2-chlorophenoxy)propanoyl]-4-[2-(4-cyclobutylpiperazin-1-yl)-2-oxoethyl]piperazine] | < 1000 nM
CC(Oc1cccc(Cl)c1)C(=O)N1CCN(CC(=O)N2CCN(C3CCC3)CC2)CC1 (centres unmarked) [Compound 418, 1-[2-(3-chlorophenoxy)propanoyl]-4-[2-(4-cyclobutylpiperazin-1-yl)-2-oxoethyl]piperazine] | < 1000 nM
COc1ccc(CN2C(=O)c3ccccc3C23CCN(CC(=O)N2CCN(C4CCC4)CC2)CC3)c(OC)c1 [Compound 425, 1′-[2-(4-cyclobutylpiperazin-1-yl)-2-oxoethyl]-2-(2,4-dimethoxybenzyl)spiro[isoindole-1,4′-piperidin]-3(2H)-one] | < 1000 nM
CC1CN(c2ccc(C(F)(F)F)cn2)CCN1CC(=O)N1CCN(C2CCC2)CC1 (centres unmarked) [Compound 427, 1-[2-(4-cyclobutylpiperazin-1-yl)-2-oxoethyl]-2-methyl-4-[5-(trifluoromethyl)pyridin-2-yl]piperazine] | < 1000 nM
CC1CCN(C2CCN(CC(=O)N3CCN(C4CCC4)CC3)CC2)CC1 [Compound 428, 1′-[2-(4-cyclobutylpiperazin-1-yl)-2-oxoethyl]-4-methyl-1,4′-bipiperidine] | < 1000 nM
COc1cccc(CN2C(=O)c3cccnc3C23CCN(CC(=O)N2CCN(C4CCC4)CC2)CC3)c1 [Compound 430, 1-[2-(4-cyclobutylpiperazin-1-yl)-2-oxoethyl]-6′-(3-methoxybenzyl) spiro[piperidine-4,7-pyrrolo[3,4-b]pyridin]-5′(6′H)-one] | < 1000 nM
O=C1NC2(CCN(CC(=O)N3CCN(C4CCC4)CC3)CC2)c2ccccc21 [Compound 434, 1′-[2-(4-cyclobutylpiperazin-1-yl)-2-oxoethyl]spiro[isoindole-1,4′-piperidin]-3(2H)-one] | < 1000 nM
O=C(CN1CCC2(CC1)C(=O)Nc1cccnc12)N1CCN(C2CCC2)CC1 [Compound 435, 1-[2-(4-cyclobutylpiperazin-1-yl)-2-oxoethyl]spiro[piperidine-4,3′-pyrrolo[3,2-b]pyridin]-2′(1′H)-one] | < 1000 nM
O=C(CN1CCC(N2CCCCC2)CC1)N1CCN(C2CCCCC2)CC1 [Compound 437, 1′-[2-(4-cyclohexylpiperazin-1-yl)-2-oxoethyl]-1,4′-bipiperidine] | < 1000 nM
CCCN(CCC)C1CCN(CC(=O)N2CCN(C3CCCCC3)CC2)CC1 [Compound 441, 1-[2-(4-cyclohexylpiperazin-1-yl)-2-oxoethyl]-N,N-dipropylpiperidin-4-amine] | < 1000 nM
CCN(CC)C1CCN(CC(=O)N2CCN(C3CCCC3)CC2)C1 (centres unmarked) [Compound 443, 1-[2-(4-cyclopentylpiperazin-1-yl)-2-oxoethyl]-N,N-diethylpyrrolidin-3-amine] | < 1000 nM

The remaining lines, values ahead:

Ki | SMILES
< 1000 nM | CC(=O)c1ccc(N2C(=O)C3(CCN(CC(=O)N4CCN(C5CCC5)CC4)CC3)c3ccccc32)nc1 [Compound 363, 1-(5-acetylpyridin-2-yl)-1′-[2-(4-cyclobutylpiperazin-1-yl)-2-oxoethyl]spiro[indole-3,4′-piperidin]-2(1H)-one]
< 1000 nM | COc1ccc(Cl)cc1-c1ccc(N2CCN(CC(=O)N3CCN(C4CCC4)CC3)CC2)cc1 [Compound 365, 1-(5′-chloro-2′-methoxybiphenyl-4-yl)-4-[2-(4-cyclobutylpiperazin-1-yl)-2-oxoethyl]piperazine]
< 1000 nM | CC(=O)c1ccc(N2CCN(CC(=O)N3CCN(C4CCC4)CC3)CC2)nc1 [Compound 371, 1-(6-{4-[2-(4-cyclobutylpiperazin-1-yl)-2-oxoethyl]piperazin-1-yl}pyridin-3-yl)ethanone]
< 1000 nM | COc1cc(Br)c(CC(=O)N2CCN(CC(=O)N3CCN(C4CCC4)CC3)CC2)cc1OC [Compound 378, 1-[(2-bromo-4,5-dimethoxyphenyl)acetyl]-4-[2-(4-cyclobutylpiperazin-1-yl)-2-oxoethyl]piperazine]
< 1000 nM | O=C(Cc1ccccc1Br)N1CCN(CC(=O)N2CCN(C3CCC3)CC2)CC1 [Compound 380, 1-[(2-bromophenyl)acetyl]-4-[2-(4-cyclobutylpiperazin-1-yl)-2-oxoethyl]piperazine]
< 1000 nM | COc1ccc(Br)cc1CC(=O)N1CCN(CC(=O)N2CCN(C3CCC3)CC2)CC1 [Compound 409, 1-[(5-bromo-2-methoxyphenyl)acetyl]-4-[2-(4-cyclobutylpiperazin-1-yl)-2-oxoethyl]piperazine]
< 1000 nM | O=C(CN1CCC(N2CCCCC2)CC1)N1CCN(C2CCC2)CC1 [Compound 421, 1′-[2-(4-cyclobutylpiperazin-1-yl)-2-oxoethyl]-1,4′-bipiperidine]
< 1000 nM | CC(C)N1C(=O)C2(CCN(CC(=O)N3CCN(C4CCC4)CC3)CC2)c2ccccc21 [Compound 422, 1′-[2-(4-cyclobutylpiperazin-1-yl)-2-oxoethyl]-1-isopropylspiro[indole-3,4′-piperidin]-2(1H)-one]
< 1000 nM | CN1C(=O)C2(CCN(CC(=O)N3CCN(C4CCC4)CC3)CC2)c2ccccc21 [Compound 423]
< 1000 nM | O=C(CN1CCC2(CC1)C(=O)N(c1ccccn1)c1ccccc12)N1CCN(C2CCC2)CC1 [Compound 424, 1′-[2-(4-cyclobutylpiperazin-1-yl)-2-oxoethyl]-1-pyridin-2-ylspiro[indole-3,4′-piperidin]-2(1H)-one]
< 1000 nM | CC(C)N1C(=O)c2ccccc2C12CCN(CC(=O)N1CCN(C3CCC3)CC1)CC2 [Compound 426, 1-[2-(4-cyclobutylpiperazin-1-yl)-2-oxoethyl]-2-isopropylspiro[isoindole-1,4′-piperidin]-3(2H)-one]
< 1000 nM | COc1ccc(CN2Cc3cccnc3C23CCN(CC(=O)N2CCN(C4CCC4)CC2)CC3)c(OC)c1 [Compound 429, 1-[2-(4-cyclobutylpiperazin-1-yl)-2-oxoethyl]-6′-(2,4-dimethoxybenzyl)-5′,6′-dihydrospiro[piperidine-4,7′-pyrrolo[3,4-b]pyridine]]
< 1000 nM | CCCN(CC1CC1)C1CCN(CC(=O)N2CCN(C3CCC3)CC2)CC1 [Compound 431, 1-[2-(4-cyclobutylpiperazin-1-yl)-2-oxoethyl]-N-(cyclopropylmethyl)-N-propylpiperidin-4-amine]
< 1000 nM | CCCN(CCC)C1CCN(CC(=O)N2CCN(C3CCC3)CC2)CC1 [Compound 432, 1-[2-(4-cyclobutylpiperazin-1-yl)-2-oxoethyl]-N,N-dipropylpiperidin-4-amine]
< 1000 nM | O=C(CN1CCC2(CC1)C(=O)Nc1ccccc12)N1CCN(C2CCC2)CC1 [Compound 433, 1′-[2-(4-cyclobutylpiperazin-1-yl)-2-oxoethyl]spiro[indole-3,4′-piperidin]-2(1H)-one]
< 1000 nM | O=C1NC2(CCN(CC(=O)N3CCN(C4CCC4)CC3)CC2)c2ncccc21 [Compound 436, 1-[2-(4-cyclobutylpiperazin-1-yl)-2-oxoethyl]spiro[piperidine-4,7′-pyrrolo[3,4-b]pyridin]-5′(6′H)-one]
< 1000 nM | CC1CN(c2ccc(C(F)(F)F)cn2)CCN1CC(=O)N1CCN(C2CCCCC2)CC1 (centres unmarked) [Compound 438, 1-[2-(4-cyclohexylpiperazin-1-yl)-2-oxoethyl]-2-methyl-4-[5-(trifluoromethyl)pyridin-2-yl]piperazine]
< 1000 nM | CC1CCN(C2CCN(CC(=O)N3CCN(C4CCCCC4)CC3)CC2)CC1 [Compound 439, 1′-[2-(4-cyclohexylpiperazin-1-yl)-2-oxoethyl]-4-methyl-1,4′-bipiperidine]
< 1000 nM | CCCN(CC1CC1)C1CCN(CC(=O)N2CCN(C3CCCCC3)CC2)CC1 [Compound 440, 1-[2-(4-cyclohexylpiperazin-1-yl)-2-oxoethyl]-N-(cyclopropylmethyl)-N-propylpiperidin-4-amine]
< 1000 nM | CC1CN(c2ccc(C(F)(F)F)cn2)CCN1CC(=O)N1CCN(C2CCCC2)CC1 (centres unmarked) [Compound 442, 1-[2-(4-cyclopentylpiperazin-1-yl)-2-oxoethyl]-2-methyl-4-[5-(trifluoromethyl)pyridin-2-yl]piperazine]
